Like-named read-outs stand apart in the source and are kept apart here. Values belong to the compound of their own block, whether it stands above or below them.
Key:
pEGFP-N1 plasmid DNA = experiment: DNA cross-linking, alkaline agarose gel electrophoresis; assay type: biochemical; settings: 1-20 μM, 37° C., 2 hrs; FIG. 1
Method: In the present example, BO-2590, BO-2577 (Formula I-A) and BO-2698, BO-2755, BO-2762 and BO-2768 (Formula I-B) were tested for their DNA crosslinking activity, in which the cross-linking was analyzed by alkaline agarose gel electrophoresis. In brief, purified pEGFP-N1 plasmid DNA (1,500 ng) was mixed with various concentrations (1-20 μM) of the tested compounds in 40 μL binding buffer (3 mM sodium chloride/1 mM sodium phosphate, pH 7.4, and 1 mM EDTA). The reaction mixture was incubated at 37° C. for 2 hrs. At the end of reaction, the plasmid DNA was linearized by digestion with BamHI and followed by precipitation with ethanol. The DNA pellets were dissolved and denatured in alkaline buffer (0.5 N NaOH-10mM EDTA). An aliquot of 20 μL of DNA solution (1,000 ng) was mixed with 4 μL of 6× alkaline loading dye and then electrophoretically resolved on a 0.8% alkaline agarose gel with NaOH-EDTA buffer at 4° C. The electrophoresis was carried out at 18V for 22 h. After staining the gels with an ethidium bromide solution, the DNA was visualized under UV light. Results are illustrated in FIG. 1.

VEGFR-2 = molecular target: T1, VEGFR-2 (Homo sapiens, UniProt P35968); experiment: VEGFR-2 activation, western blotting in EA.hy926 cells; assay type: cell-based; settings: EA.hy926 cells, 12 hr; FIG. 3
T1 construct: endogenous in cells; host or cells: EA.hy926 endothelial cells
Method: In the present example, BO-2590 and BO-2577 were subject to the test of their activity in suppressing VEGFR-2 by western blotting analysis. Briefly, the endothelial EA.hy926 cells were incubated with BO-2590 or BO-2577 at various concentrations for 12 hr. The primary antibodies, anti-VEGFR-2 and anti-p-VEGFR-2, were used to blot the proteins of total VEGFR-2 and p-VEGFR-2, respectively. Results are illustrated in FIG. 3.

[1] = test system: non-small cell lung cancer H460; experiment: in vitro cytotoxicity, PrestoBlue assay; assay type: cell-based, human; settings: Table 2
Method: (§1) All representative compounds of Formulae (I-A) and (I-B) were first evaluated for their in vitro cytotoxicity to human lymphoblastic leukemia cell line (CCRF-CEM) and its vinblastine-resistant sub-cell line (CCRF-CEM/VBL) (see Table 1).
(§2) After a 72-hr incubation in various concentrations of the newly synthesized compounds, the cytotoxic effects of them to all cell lines were determined by the PrestoBlue®(Invitrogen) assay using a microplate spectrophotometer. Briefly, at the end of treatment, an aliquot of PrestoBlue® solution was added and then cells were incubated at 37° C. for 1-2 hr. The absorbance at 570 and 600 nm was measured with a microplate reader. […] The ICso is defined by the concentration required to inhibit tumor cell growth by 50%. Data represent the mean±STDEV of three to six independent experiments for each compound.

[2] = test system: vinblastine-resistant sub-cell line (CCRF-CEM/VBL); experiment: in vitro cytotoxicity, PrestoBlue assay; assay type: cell-based, human; settings: for IC50: read-out: IC50 CEM/VBL; for resistance factor (IC50 CEM/VBL vs IC50 of the parent cell line): number in brackets
Method: as §1, §2

pancreatic cancer PacaS1 = experiment: in vitro cytotoxicity, PrestoBlue assay; assay type: cell-based, human; settings: Table 2
Method: as §1, §2

colon cancer HCT-116 = experiment: in vitro cytotoxicity, PrestoBlue assay; assay type: cell-based, human; settings: Table 2
Method: as §1, §2

[3] = test system: small cell lung cancer H526; experiment: in vitro cytotoxicity, PrestoBlue assay; assay type: cell-based, human
[4] = test system: human lymphoblastic leukemia cell line (CCRF-CEM); experiment: in vitro cytotoxicity, PrestoBlue assay; assay type: cell-based; settings: read-out: IC50 CCRF-CEM
Method: as §1, §2

H1417 = experiment: in vitro cytotoxicity to SCLC cells; assay type: cell-based, human; settings: Table 3
Method: as §2

H146 = experiment: in vitro cytotoxicity to SCLC cells; assay type: cell-based, human; settings: Table 3
Method: as §2

H82 = experiment: in vitro cytotoxicity to SCLC cells; assay type: cell-based, human; settings: Table 3
Method: as §2

H211 = experiment: in vitro cytotoxicity to SCLC cells; assay type: cell-based, human; settings: Table 3
Method: as §2

[5] = body weight changes of xenograft-bearing nude mice; assay type: in vivo; settings: H526 xenograft mice, micelle formulation; FIG. 12, panel B
Method: (§3) Athymic nude mice bearing the nu/nu gene were obtained from the National Laboratory Animal Center (Taipei, Taiwan). Male nude mice (6 weeks or older weighing 20-24 g or more) were used for all human tumor xenografts. The tested compounds were intravenously administered through tail vein. Tumor volume was determined by measuring the length x width x height (or width) with calipers. The vehicle used for the tested compounds was normal saline (0.9% NaCl isotonic solution). For tumor-bearing nude mice during the course of the experiment, the % body weight changes refer to: (the total weight on reading day/the total weight on day treatment started)×100.

[6] = test system: human SCLC H526 xenografts; experiment: tumor growth in xenograft-bearing nude mice; assay type: in vivo; settings: micelle formulation (Kolliphor/TWEEN 80/PEG400/ethanol/D5W); BO-2768 at 20 mg/kg twice daily; FIG. 12, panel A
Method: as §3, with “The vehicle used for the tested compounds was normal saline (0.9% NaCl isotonic solution).” left out
In all experiments, the tumor cells were subcutaneously implanted in nude mice, and the BO-2590L was administered via tail vein when the tumor size reaching approximate 100 mm^3. […]
To confirm the therapeutic activity of BO-2590L, comparative experiments carried out by known chemotherapeutic agents, such as vatanalib and cisplatin, were also performed. Briefly, the H526 xenograft-bearing mice were divided into 4 groups which were treated with vehicle, BO-2590L (10 mg/kg, QD×9), vatalanib (100 mg/kg, QD×9), and cisplatin (4 mg/kg, Q2D×3), respectively. Results are illustrated in FIG. 11.
Results are illustrated in FIGS. 12 and 13.

[7] = Homo sapiens, CCRF-CEM, 72-hr incubation, mean ± STDEV of three to six experiments
[8] = 72-hr incubation, mean ± STDEV of three to six experiments

T1 sequence (P35968 20-1356): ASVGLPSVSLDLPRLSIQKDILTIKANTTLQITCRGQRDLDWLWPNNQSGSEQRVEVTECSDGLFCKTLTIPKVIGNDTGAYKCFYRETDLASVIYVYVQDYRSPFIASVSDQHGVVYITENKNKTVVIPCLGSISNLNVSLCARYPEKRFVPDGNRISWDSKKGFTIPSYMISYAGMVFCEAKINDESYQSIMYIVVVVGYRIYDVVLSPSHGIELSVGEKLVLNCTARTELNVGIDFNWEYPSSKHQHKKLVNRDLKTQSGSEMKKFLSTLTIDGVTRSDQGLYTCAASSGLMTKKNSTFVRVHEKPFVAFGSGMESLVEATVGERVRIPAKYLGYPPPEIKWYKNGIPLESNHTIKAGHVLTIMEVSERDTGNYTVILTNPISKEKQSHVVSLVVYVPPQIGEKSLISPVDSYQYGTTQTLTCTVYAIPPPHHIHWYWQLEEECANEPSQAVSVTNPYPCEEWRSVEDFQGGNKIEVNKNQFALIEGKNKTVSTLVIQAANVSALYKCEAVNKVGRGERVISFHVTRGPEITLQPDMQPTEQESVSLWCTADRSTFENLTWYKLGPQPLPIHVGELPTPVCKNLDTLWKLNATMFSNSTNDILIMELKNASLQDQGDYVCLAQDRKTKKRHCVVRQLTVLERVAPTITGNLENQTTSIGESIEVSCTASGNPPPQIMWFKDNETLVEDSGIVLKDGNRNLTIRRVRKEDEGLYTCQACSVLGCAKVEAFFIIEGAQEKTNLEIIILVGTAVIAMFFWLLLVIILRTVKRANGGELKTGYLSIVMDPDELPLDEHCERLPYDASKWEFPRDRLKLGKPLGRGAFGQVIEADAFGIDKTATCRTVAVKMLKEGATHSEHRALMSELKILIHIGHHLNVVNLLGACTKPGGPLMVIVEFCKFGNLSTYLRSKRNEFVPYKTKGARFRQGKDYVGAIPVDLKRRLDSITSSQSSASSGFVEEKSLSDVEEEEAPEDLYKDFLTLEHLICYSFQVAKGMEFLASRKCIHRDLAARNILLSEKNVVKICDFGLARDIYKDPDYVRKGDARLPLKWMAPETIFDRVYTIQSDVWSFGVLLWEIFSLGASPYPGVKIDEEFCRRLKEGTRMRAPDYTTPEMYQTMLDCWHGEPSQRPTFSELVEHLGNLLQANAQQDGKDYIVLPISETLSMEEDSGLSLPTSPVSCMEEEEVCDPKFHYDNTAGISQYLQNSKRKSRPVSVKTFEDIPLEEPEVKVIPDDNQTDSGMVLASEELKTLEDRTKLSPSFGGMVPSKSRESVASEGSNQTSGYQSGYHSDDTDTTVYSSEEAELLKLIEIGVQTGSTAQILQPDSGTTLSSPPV

melting point: 180 to 182 °C
SMILES: CCc1c(CO)c(CO)c2c3ccccc3c(N3CCOCC3)nn12 [BO-2577, (3-Ethyl-6-morpholinopyrrolo[2,1-a]phthalazine-1,2-diyl)-dimethanol]
formation of DNA interstrand crosslinks (pEGFP-N1 plasmid DNA): induced DNA interstrand crosslinks
p-VEGFR-2 protein levels (VEGFR-2): marked suppression in p-VEGFR-2 protein levels
total protein levels of VEGFR-2 (VEGFR-2): did not significantly change the total protein levels of VEGFR-2
IC50 ([1]; Homo sapiens, NCI-H460): 18.57 ± 0.18 µM
IC50 [2, 7]: 2550 ± 120 nM
resistance factor (IC50 CEM/VBL vs IC50 of the parent cell line) [2]: 0.84 ×
IC50 Paca SI (pancreatic cancer PacaS1): 13.02 ± 0.93 µM
IC50 (colon cancer HCT-116; Homo sapiens, HCT-116): 11.5 ± 1.66 µM
IC50 ([3]; Homo sapiens, NCI-H526, Table 2, read-out: IC50 H526): 750 ± 120 nM
IC50 [4, 7]: 3040 ± 380 nM

SMILES: Cc1c(CO)c(CO)c2c3ccccc3c(N3CCCC3)nn12 [BO-2686, (3-Methyl-6-(pyrrolidin-1-yl)pyrrolo[2,1-a]phthalazine-1,2 diyl)dimethanol]
melting point: 160 to 162 °C
IC50 ([1]; Homo sapiens, NCI-H460): 3.87 ± 0.73 µM
IC50 ([2]; Homo sapiens, CCRF-CEM, 72 h): 470 ± 50 nM
resistance factor (IC50 CEM/VBL vs IC50 of the parent cell line) [2]: 0.51 ×
IC50 Paca SI (pancreatic cancer PacaS1): 11.73 ± 1.16 µM
IC50 (colon cancer HCT-116; Homo sapiens, HCT-116): 3.96 ± 0.06 µM
IC50 ([3]; Homo sapiens, NCI-H526, read-out: IC50 H526): 300 ± 40 nM
IC50 ([4]; Homo sapiens, CCRF-CEM, 72 h): 920 ± 70 nM

SMILES: CCNC(=O)OCc1c(COC(=O)NCC)c2c3ccccc3c(N3CCCC3)nn2c1C [BO-2716, (3-Methyl-6-(pyrrolidin-1-yl)pyrrolo[2,1-a]phthalazine-1,2-diyl)-bis(methylene) bis(ethylcarbamate)]
melting point: 140 to 142 °C
IC50 ([2]; Homo sapiens, CCRF-CEM, 72 h): 2100 ± 90 nM
resistance factor (IC50 CEM/VBL vs IC50 of the parent cell line) [2]: 1.47 ×
IC50 ([4]; Homo sapiens, CCRF-CEM, 72 h): 1420 ± 90 nM

SMILES: Cc1c(CO)c(CO)c2c3cc4ccccc4cc3c(N3CCCC3)nn12 [BO-2762, (3-Methyl-6-(pyrrolidin-1-yl)benzo[g]pyrrolo[2,1-α]phthalazine-1,2-diyl)dimethanol]
formation of DNA interstrand crosslinks (pEGFP-N1 plasmid DNA): induced DNA interstrand crosslinks
IC50 [1]: 0.78 ± 0.24 µM
IC50 [2, 8]: 140 ± 20 nM
resistance factor (IC50 CEM/VBL vs IC50 of the parent cell line) [2]: 0.74 ×
IC50 Paca SI (pancreatic cancer PacaS1): 1.04 ± 0.08 µM
IC50 (colon cancer HCT-116): 0.93 ± 0.12 µM
IC50 ([3]; Table 2, read-out: IC50 H526): 50 ± 10 nM
IC50 ([3]; Table 3, read-out: IC50 H526): 30 ± 10 nM
IC50 [4, 8]: 190 ± 10 nM
IC50 (H1417): 600 ± 340 nM
IC50 (H146): 1010 ± 240 nM
IC50 (H82): 410 ± 150 nM
IC50 (H211): 200 ± 120 nM

SMILES: Cc1c(CO)c(CO)c2c3cc4ccccc4cc3c(N3CCC(N4CCCCC4)CC3)nn12 [BO-2792]
deleterious effects on the bodyweight of the test animals [5]: none
tumor size [6]: as effective as irinotecan and cisplatin in reducing the tumor size
IC50 [2, 8]: 25 ± 5 nM
resistance factor (IC50 CEM/VBL vs IC50 of the parent cell line) [2]: 1.51 ×
IC50 ([3]; Table 3, read-out: IC50 H526): 3 ± 3 nM
IC50 [4, 8]: 17 ± 9 nM
IC50 (H1417): 250 ± 50 nM
IC50 (H146): 200 ± 150 nM
IC50 (H82): 40 ± 10 nM
IC50 (H211): 20 ± 20 nM

SMILES: CCc1c2c(nc3ccc(OC(=O)N4CCC(N5CCCCC5)CC4)cc13)-c1cc3c(c(=O)n1C2)COC(=O)[C@]3(O)CC [Irinotecan, reference compound]
deleterious effects on the bodyweight of the test animals [5]: none
tumor size [6]: slowly increased in size
IC50 ([3]; Homo sapiens, NCI-H526, Table 3, read-out: IC50 H526): 590 ± 300 nM
IC50 (H1417; Homo sapiens, NCI-H1417): 9790 ± 840 nM
IC50 (H146; Homo sapiens, NCI-H146): 11500 ± 6530 nM
IC50 (H82; Homo sapiens, NCI-H82): 2260 ± 10 nM
IC50 (H211; Homo sapiens, NCI-H211): 8810 ± 460 nM
